melting point [°C]	SMILES
112	CCOC(=O)C(C)(Cc1cccc(OCCN2CCCCC2)c1)S(=O)(=O)c1ccc(OC)cc1 (centres undefined)
218 to 219	COc1ccc2cc(C=NNC(N)=O)ccc2c1
114 to 116	CCn1c(=O)c(-c2cc(OC)cc(OC)c2)cc2cnc(S(C)=O)nc21 (centres undefined)
110 to 112	Cc1ccc(-c2cc(-c3ccccc3)c(-c3ccccc3)s2)cc1
166 to 171	CC(C)CC(C)(C(=O)NC1CCCCCCCCCCNC1=O)c1ccccc1S (centres undefined)
131 to 133	Cc1cc(C)c(S(=O)(=O)N(C)c2ccccc2CSc2nccn2-c2ccccn2)c(C)c1
176 to 182	CC(C)c1ccc(-n2c(CC(=O)O)c(C(=O)O)c3cc(Oc4cccc(Cl)c4)ccc32)cc1
140 to 141	CC(COC(=O)C(=O)Nc1nc(-c2ccccc2)cs1)c1ccccc1 (centres undefined)
151 to 152	COc1cccc(S(=O)(=O)Nc2nccnc2OC)c1Cl
188 to 189	CNC(=O)Nc1ccc(O)c(Cl)c1
118 to 120	N#CN1CCC(c2nsc3ccccc23)CC1
235 to 237	CCCc1c2nc(C(=O)OCC)cc(NC)c2cc2c(=O)cc(C(=O)OCC)oc12
56	FC(F)(F)c1ccc2nccc(Br)c2c1
79 to 81	CC(C)(C)C1NCc2ccccc2C1c1ccccc1 (centres undefined)
113 to 114	COc1c(CS(=O)(=O)C2=NOC(C)(C)C2)c(C(F)(F)F)nn1C
74	Cc1cccc(-c2nc3ccc(OCCCN(C)C)cc3n2Cc2ccccc2C(F)(F)F)c1
123 to 124	COc1cc(COc2nn(C)cc2C=O)ccc1OCc1nc(-c2ccccc2)oc1C
190 to 191	O=C(O)COc1ccc(C(=O)C=Cc2ccccc2)c(Cl)c1Cl
146 to 147	Cc1noc(NS(=O)(=O)c2ccccc2-c2ccc(-c3ncco3)cc2CN(CC(F)(F)F)C(=O)C(C)(C)C)c1C
151 to 152	CCc1sc(N)nc1-c1cc(Br)no1
99 to 100	C=CCC(CC)(CC=C)C(=O)O[C@H]1C[C@H](O)C=C2C=C[C@H](C)[C@H](CC[C@@H]3C[C@@H](O)CC(=O)O3)[C@H]21
171 to 172	Cc1cccc2c1nc(-c1ccccc1[N+](=O)[O-])n2CC(C)O (centres undefined)

melting point [°C]	SMILES
79 to 80	C=CCOc1cccc2oc(C=CC(=O)OCC)c(C)c12
56 to 59	CCc1nn(CCCO)c(CC)c1Cc1cc(Cl)cc(Cl)c1
190	Cn1cncc1C(O)(c1ccc(Cl)cc1)c1ccc2c(c1)c(CCc1cccc(Cl)c1)cc(=O)n2C (centres undefined)
49	COc1cc(CN(C(N)=S)[C@@H](COC(=O)C(C)(C)C)Cc2ccccc2)ccc1OCCN
73 to 75	CCOc1ccc(Nc2cccc3ccccc23)cc1
104 to 108	Cc1ccc(S(=O)(=O)OCC2Cc3cccc(-c4ccc(F)c(Cl)c4)c3O2)cc1 (centres undefined)
104 to 107	Cc1cc(Cn2nc(C(F)(F)F)cc2C(F)(F)F)ccc1NC(=O)c1cccc(I)c1C(=O)NC(C)(C)CS(C)(=O)=O
110 to 112	Cc1cccc(CNC(=O)CC#N)c1
178 to 180	COc1ccc(C2Sc3ccccc3N(CCN(C)C)C(=O)C2OC(=O)c2cccc([N+](=O)[O-])c2)cc1 (centres undefined)
215 to 216	NC(=O)COc1ccc(CN2C(=O)C3(COc4cc5c(cc43)CCO5)c3ccccc32)cc1 (centres undefined)
41 to 43	COc1cccc(C=O)c1OCc1ccccc1
144	O=C1C(=O)N(CCCCN2CCN(C(c3ccccc3)c3ccccc3)CC2)c2ccc(F)cc21
264 to 265	Nc1cc(C(=O)NNC(=O)Cc2cccc(O)c2)ccc1O
21 to 22	Fc1ccc2sccc2c1
152 to 155	CCOC(=O)c1cc(CC)sc1Nc1ccc(N)cc1N
119 to 121	C=CCOC(=O)c1ccc(S(C)=O)c([N+](=O)[O-])c1 (centres undefined)
135 to 137	CC(=O)Nc1c(-c2cccc(-n3c(N)nc4ccccc43)c2)cnn1C
246 to 247	c1ccc(N=C(N=C(Nc2ccccc2)c2ccccc2)N2CCCC2)cc1
208 to 210	CC1CCCN(c2ccc(Cl)cc2C(C)C(C(N)=O)c2ccc(C(=O)O)cc2)C1 (centres undefined)
150 to 151	Cc1ccccc1-c1ccc(C(=O)Nc2ccc3cc(CN4CCCC4)cnc3c2C)cc1
180	CSC(=S)NN=Cc1nc[nH]c1C
207 to 208	COc1cc(C)c(C=CC(C)=CC=CC(C)=CC(=O)O)c(C)c1

melting point [°C]	SMILES
136 to 138	COC(=O)N1CCc2c(O)noc2C1
173 to 176	CNS(=O)(=O)CC(=O)C1=C(C)NC(C)=C(C(=O)OC)C1c1cccc([N+](=O)[O-])c1 (centres undefined)
199 to 201	CC1CCn2c(nc(-c3ccncn3)cc2=O)N1 (centres undefined)
191 to 192	Cn1cc(-c2ccccc2)nc1CO
73 to 74	CCOC(=O)c1cc2ccc(C(C)C)nc2s1
119 to 121	O=C(CCCCCNC(=O)C(=O)c1cn2c3c(cccc13)CCC2)NOCc1ccccc1
51	C=C(C)C(=O)OCCCCCCCCCCCOC(=O)c1cc(OC(=O)c2ccc(/C=C/C(=O)OC)cc2)ccc1O
158 to 162	COc1ccc(S(=O)(=O)n2cc(F)c(N)nc2=O)cc1
158 to 160	O=[N+]([O-])c1ccc(C(O)c2ncco2)c(Cl)c1 (centres undefined)
190 to 191	CN1C2CCC1CN(C(=O)c1ccc(-c3ccc(N)cc3)o1)C2
70 to 71	COc1ccc(NC(C)CC(=O)NC(=O)OC(C)(C)C)cc1 (centres undefined)
45 to 50	CON(C)C(=O)c1cc2n(n1)CCC2
63 to 67	S=C(NCCCCN(Cc1ccc(Cl)c(Cl)c1)c1ccc(Br)cn1)NCCCc1c[nH]cn1
94 to 96	CCOCc1c(C)nc2c3cccc(Cl)c3ccn12
75 to 77	CC(C)(Sc1cc(C(C)(C)C)c(O)c(C(C)(C)C)c1)Sc1cc(C(C)(C)C)c(OCCC(O)C(O)CCO)c(C(C)(C)C)c1 (centres undefined)
138 to 141	Cn1nc(-c2ccc(NN=C(CCC(=O)O)c3ccc(O)cc3O)cc2)ccc1=O
96 to 99	CCCCCCCCCCCCCCCCCC(=O)NCCO
92	CCn1nc(Br)c([N+](=O)[O-])c1NCc1ccccc1
138 to 139	COc1ccc2c(CN3CCC[C@H]3CO)cc3cc4c(cc3c2c1)OCO4
191 to 195	COc1cc2c(cc1OC)C(C)=[N+]([O-])C(c1ccco1)N2 (centres undefined)
137 to 140	Clc1ccc2ccc(COc3cccc(CN4CCc5cccc(CCc6nnn[nH]6)c54)c3)nc2c1
159 to 161	C=CCc1cc(CN2C(=O)CCc3c2ccc(O)c3CC=C)cc(OC)c1O

melting point [°C]	SMILES
62 to 64	NCCCCc1cnc(-c2ccccc2)s1
106	N#CNC(=N)NC1CC1
59 to 60	OCCCCc1ccc(OCc2ccccc2)cc1
200 to 203	O=c1oc2c(c(O)c1C(c1cccc(S(=O)(=O)Nc3ccccc3)c1)C1CC1)CCCCCC2 (centres undefined)
105 to 110	Cc1cc(NC2CN(C(=O)OCc3ccccc3)CC2O)c2cc(C)c(-c3ccc(Cl)cc3Cl)n2n1 (centres undefined)
296 to 298	Fc1ccc(CNc2nc(-n3cnc4ccccc43)nc(-n3cnc4ccccc43)n2)cc1
225 to 227	Cc1nc(SCc2ncccc2C(=O)O)sc1CC(=O)O
215 to 216	Cc1nn(C)c(Cl)c1S(=O)(=O)Nc1ccc(Cl)cc1C(=O)Nc1ccc(S(=O)(=O)N2CCSCC2)cc1
286	N#Cc1c(N2CCN(C(=O)c3cccs3)CC2)c2sccc2n(Cc2ccc(F)cc2)c1=O
145 to 147	Cc1oc(-c2ccccc2)nc1COc1ccc(CN(O)C(N)=O)c(Cl)c1
102 to 104	COc1cccc(CC(=O)O)c1OCCCc1cn(-c2ccccn2)nc1C(C)C
79 to 80	CCc1cc(C)c2c(C3CCCCC3)cc(=O)n(CC)c2n1
141 to 143	CC(C)[C@H](NC(=O)OCc1ccc2ccccc2n1)C(=O)N[C@@H](Cc1ccccc1)C[C@H](O)[C@H](Cc1ccccc1)NC(=O)OCc1cccnc1
118 to 120	CC(N)CNC(=O)Nc1ccccc1 (centres undefined)
57 to 59	CCOC(=O)C(C(=O)OCC)=C(SCc1ccc(OC)cc1)SCc1ccc(OC)cc1
182 to 183	CCC(COC)Nc1nc(C)nc(N2CCc3cc(OC)cc(Cl)c32)c1C#N (centres undefined)
> 300	CC1=NN(c2cccc(S(N)(=O)=O)c2)C(=O)C1=c1[nH]c(=c2[nH]c(=C3C(=O)N(c4cccc(S(N)(=O)=O)c4)N=C3C)c3ccccc23)c2ccccc12
40 to 43	ClC1(CBr)C=CC=CN1 (centres undefined)
107 to 108	O=c1c2ccccc2ncn1C1CCN(CCCc2ccccc2)CC1
134 to 135	CCOC1CN(Cc2cccc(OC)c2)Cc2cc(OC)c(O)cc21 (centres undefined)
120 to 122	COc1cc(-c2ncc(Cl)cc2F)c(F)cc1Cl
194 to 196	COc1cc(-n2ccc(C(F)(F)F)cc2=O)c(F)cc1C#N

SMILES	melting point [°C]
CCC(=O)N(C)c1cccc(-c2ccnc3c(C(=O)c4ccco4)cnn23)c1	153 to 155
CCP(=O)(O)CCCN	233 to 239
CC(=O)Nc1ccc2c(c1)CC(=O)N2CCN1CCN(Cc2ccccc2)CC1	145 to 147
Cc1ccc(C)n1-c1c(SC(F)(F)F)c(C#N)nn1-c1c(Cl)cc(C(F)(F)F)cc1Cl	142 to 144
O=C1NC2(C(=O)CCl)C=CC1C2 (centres undefined)	86 to 88
CON=CNC(=O)c1ccc(C2=NOC(c3cc(Cl)cc(Cl)c3)(C(F)(F)F)C2)cc1C (centres undefined)	167 to 169
O=c1c2ccc(F)cc2nc(C(S)c2ncnc3[nH]cnc23)n1-c1ccccc1Cl (centres undefined)	151 to 154
NC(=O)c1nc(CCl)n(-c2ccc(Cl)cc2C(=O)c2ccccc2)n1	128 to 130
COC(=O)C(O)(c1ccc(C(F)(F)F)cc1)c1ccc(C(F)(F)F)cc1	68
CC(C)(CF)c1cc(Cl)nnc1Cl	36 to 38
COC(=O)[C@@H]1C[C@H](O)C(=O)[C@@H]2[C@@]3(C)C[C@@H](c4ccoc4)OC(=O)[C@H]3CC[C@]21C	211 to 214
